Read-outs that look alike come from different tables or passages of the source. Bounds are passed on as bounds.

The nature of series [1]: Metabolites in 24-hour urine of rats given Maillard reaction products orally (HPLC). The conditions noted are these: rat. The procedure:
Then, 100 μl of acetonitrile/phosphate buffer (7/93) adjusted to pH 2.0 was injected into the HPLC apparatus through the injection microsyringe. The apparatus and the experimental conditions were the same as those described above.
The specification of the HPLC apparatus and experimental conditions were the same as described above.

Series [2] relates to male Wistar rats. Nature of the series: Blood free-fatty acid level time course after 5-MPCA. In kind it is in vivo, rat. Conditions: 50 mg/kg, 1, 2, 4 and 6 hours after administration. The procedure:
Further, using four-week-old male Wistar rats, the following experiment was performed. A control group was administered with physiological saline. A test group was administered with a solution of 50 mg/kg of 5-methylpyrazine-2-carboxylic acid (5-MPCA) dissolved in physiological saline. Immediately before starting the administration and 1, 2, 4, and 6 hours after the administration, each 6 rats were decapitated and blood was collected from each rat. According to a conventional method, plasma was separated from each sample blood and blood levels of free-fatty acid (FFA) were determined using a kit for determining free-fatty acid level. […] That is, FIG. 10 is a diagram showing the effect of 5-methylpyrazinecarboxylic acid on the blood free-fatty acid level of the rats.

The subject of series [3] is absorption of glucose in digestive tracts. The conditions noted are these: animal test; cited from earlier work.
Series [4] relates to male Wistar rats.
The subject of series [5] is male Wistar rats. Conditions: oral, 10 mg/kg nicotinic acid alone.
A short description of series [6]: Water solubility as described for addition to liquid foods. The class given is physicochemical. As for the experimental part: The case where the above-mentioned group A to C compounds are added to any liquid foods and beverages (coffee, refreshing beverages, etc.) or hydrophilic solutions (for example, aqueous solutions and alcohol solutions) is described hereinbelow. […] Since the group B compounds are water-soluble but have strong volatility, it is recommended that simple dissolution thereof may be performed after concentration of a coffee extract and freeze-drying, if any. […] Since the group C compounds are water-soluble but have weak volatility, they may be simply dissolved similarly to the group B compounds.

For the next series, the system named is insulin sensitivity. Conditions: rat, in vivo; cited from earlier work.

On to `Cc1cnc(C)cn1` [2,5-dimethylpyrazine], for which the “conversion by metabolism in liver” value in series [1] (50 mg/kg, 24-hour urine) was “converted into a group C compound”.

For the molecule `Cc1cnc(C(=O)O)cn1` [5-MPCA, 5-methyl-pyrazine-2-carboxylic acid], the “rebound phenomenon of blood free-fatty acid level” value with male Wistar rats [2] was “no rebound phenomenon”.

As to `O=C(/C=C/c1ccc(O)c(O)c1)O[C@@H]1C[C@](O)(C(=O)O)C[C@@H](O)[C@H]1O` [Chlorogenic acid, chlorogenic acid], the “speed of absorption of glucose in digestive tracts” value in series [3] was “reducing a speed of absorption of glucose in digestive tracts”.

As for `O=C(O)c1cccnc1` [nicotinic acid], the “time after which rebound phenomenon was observed” value with male Wistar rats [4] (10 to 20 mg/kg) came to 2 h; with male Wistar rats [4] (oral, 5 mg/kg) it was 1 h; in the series on male Wistar rats [4] (oral, 10 mg/kg) it was 2 h; in the series on male Wistar rats [4] (oral, 50 mg/kg), 4 h. Moreover, in the series on male Wistar rats [4] (oral, any dose of from 5 mg/kg to 50 mg/kg), the “blood free-fatty acid level after 30 minutes of the administration” value was ≤ 0.5 mEq/l. Moreover, the “rebound phenomenon after 1 hour of the administration” value in the series on male Wistar rats [5] is reported as “present in a mixed manner”. The “rebound phenomenon after 2 hours of the administration” value with male Wistar rats [5] is “all the animals showed the rebound phenomenon”.

As for `O=Cc1ccc[nH]1` [pyrrole-2-aldehyde], in series [1] (50 mg/kg oral, urine collected after 24 hours), the “recovery in urine (in words)” value was “almost quantitative”.

Consider `Cc1nc(C)c(C)nc1C` [tetramethylpyrazine], for which the water solubility result in series [6] is “hardly water-soluble”.

With chlorogenic lactone, the insulin sensitivity result in the series on insulin sensitivity is “Enhancement of insulin sensitivity”.

Source of the values: patent US20080227832A1, “Modified Coffee, Method of Roasting Coffee Bean, Coffee-Like Supplement and Auxiliary Food” (TAMA-TLO Corporation, priority 2004, published 2008).
